# Laboratory results published in article PMC6268880, “IMB2026791, a Xanthone, Stimulates Cholesterol Efflux by Increasing the Binding of Apolipoprotein A-I to ATP-Binding Cassette Transporter A1” (Molecules, 2012).
# Biological target: T1, ATP-binding cassette transporter A1 (ABCA1) (Homo sapiens, UniProt O95477)
# T1 construct: full-length ABCA1 (pIRES2-EGFP-ABCA1) in CHO cells; with apoA-I
# Experiment: cell-based ELISA-like apoA-I binding to ABCA1-transfected CHO cells, with vector-only control; western blot
# T1 sequence (O95477 whole entry): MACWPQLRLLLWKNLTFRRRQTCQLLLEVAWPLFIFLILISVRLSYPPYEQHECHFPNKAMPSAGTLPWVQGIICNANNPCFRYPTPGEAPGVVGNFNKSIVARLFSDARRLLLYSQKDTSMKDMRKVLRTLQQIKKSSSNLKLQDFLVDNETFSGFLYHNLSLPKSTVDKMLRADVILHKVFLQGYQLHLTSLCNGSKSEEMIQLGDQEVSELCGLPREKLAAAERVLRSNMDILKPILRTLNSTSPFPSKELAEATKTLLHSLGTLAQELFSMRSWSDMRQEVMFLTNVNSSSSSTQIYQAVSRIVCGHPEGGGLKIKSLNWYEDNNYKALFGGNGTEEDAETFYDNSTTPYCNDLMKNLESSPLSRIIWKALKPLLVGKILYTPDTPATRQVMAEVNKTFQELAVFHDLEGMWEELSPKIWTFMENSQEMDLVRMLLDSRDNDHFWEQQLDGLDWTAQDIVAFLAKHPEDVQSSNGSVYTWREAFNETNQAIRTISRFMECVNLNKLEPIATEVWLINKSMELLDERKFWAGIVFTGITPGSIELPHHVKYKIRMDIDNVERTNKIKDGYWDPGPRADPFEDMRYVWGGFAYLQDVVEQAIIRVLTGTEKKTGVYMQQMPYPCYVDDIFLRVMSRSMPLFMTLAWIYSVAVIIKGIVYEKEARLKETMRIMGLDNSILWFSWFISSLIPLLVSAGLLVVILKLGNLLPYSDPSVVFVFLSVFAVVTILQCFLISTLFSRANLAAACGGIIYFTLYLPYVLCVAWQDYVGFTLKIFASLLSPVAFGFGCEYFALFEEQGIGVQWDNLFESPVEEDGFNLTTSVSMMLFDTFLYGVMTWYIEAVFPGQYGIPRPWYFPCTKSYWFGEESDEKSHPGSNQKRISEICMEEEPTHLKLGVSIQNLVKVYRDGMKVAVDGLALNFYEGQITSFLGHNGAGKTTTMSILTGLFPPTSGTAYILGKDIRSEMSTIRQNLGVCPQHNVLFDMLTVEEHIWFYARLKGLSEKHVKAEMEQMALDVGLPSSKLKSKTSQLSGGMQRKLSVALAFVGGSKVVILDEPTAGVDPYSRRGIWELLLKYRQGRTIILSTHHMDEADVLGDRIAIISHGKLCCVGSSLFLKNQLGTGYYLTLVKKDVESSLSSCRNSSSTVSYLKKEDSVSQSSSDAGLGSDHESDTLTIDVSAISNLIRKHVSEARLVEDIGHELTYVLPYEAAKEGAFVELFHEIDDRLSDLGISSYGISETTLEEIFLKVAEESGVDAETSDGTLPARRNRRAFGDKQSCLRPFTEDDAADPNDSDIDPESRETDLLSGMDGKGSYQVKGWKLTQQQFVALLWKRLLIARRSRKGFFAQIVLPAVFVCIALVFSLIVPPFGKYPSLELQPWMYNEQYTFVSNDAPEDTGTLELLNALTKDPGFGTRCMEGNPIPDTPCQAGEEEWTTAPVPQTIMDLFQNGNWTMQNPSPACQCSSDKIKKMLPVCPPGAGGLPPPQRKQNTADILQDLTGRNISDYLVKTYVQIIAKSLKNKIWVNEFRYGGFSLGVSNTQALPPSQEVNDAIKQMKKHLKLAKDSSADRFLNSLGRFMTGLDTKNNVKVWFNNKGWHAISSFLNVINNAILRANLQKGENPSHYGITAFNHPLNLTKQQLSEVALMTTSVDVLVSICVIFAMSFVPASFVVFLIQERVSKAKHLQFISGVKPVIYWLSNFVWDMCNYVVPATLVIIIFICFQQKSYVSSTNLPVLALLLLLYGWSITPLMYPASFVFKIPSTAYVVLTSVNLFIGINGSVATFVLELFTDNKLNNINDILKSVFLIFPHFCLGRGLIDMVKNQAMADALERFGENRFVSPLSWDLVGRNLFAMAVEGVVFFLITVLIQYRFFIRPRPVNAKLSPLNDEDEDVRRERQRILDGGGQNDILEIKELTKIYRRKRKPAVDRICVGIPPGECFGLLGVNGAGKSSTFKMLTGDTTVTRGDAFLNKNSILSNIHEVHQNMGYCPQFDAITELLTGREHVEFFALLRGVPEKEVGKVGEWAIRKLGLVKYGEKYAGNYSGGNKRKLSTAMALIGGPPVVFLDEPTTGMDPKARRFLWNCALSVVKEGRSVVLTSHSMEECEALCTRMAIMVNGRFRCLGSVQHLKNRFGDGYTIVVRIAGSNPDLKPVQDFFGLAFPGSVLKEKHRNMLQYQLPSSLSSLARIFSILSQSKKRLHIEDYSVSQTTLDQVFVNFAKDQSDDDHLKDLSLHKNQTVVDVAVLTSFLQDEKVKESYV
# T1 sequence (P02647 25-267 partner): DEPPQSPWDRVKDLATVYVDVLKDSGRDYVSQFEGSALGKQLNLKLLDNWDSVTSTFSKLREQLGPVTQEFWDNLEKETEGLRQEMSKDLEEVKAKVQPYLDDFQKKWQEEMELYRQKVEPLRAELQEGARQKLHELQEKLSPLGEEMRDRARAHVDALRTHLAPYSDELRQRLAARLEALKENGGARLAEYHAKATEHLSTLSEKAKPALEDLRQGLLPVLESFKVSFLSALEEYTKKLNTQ
compound,measurement,value
COc1ccc(Cl)cc1C(=O)NCCc1ccc(S(=O)(=O)NC(=O)NC2CCCCC2)cc1 [glibenclamide],"cell-based ELISA-like apoA-I binding to ABCA1-transfected CHO cells, with vector",an inhibition by glibenclamide was observed on transfected cells expressing ABCA1
